# Test results taken from patent US5171835A, “LHRH antagonists” (The Administrators of the Tulane Educational Fund, priority 1991, dated 1992).
# Read-outs that look alike come from different tables or passages of the source. Square brackets hold non-standard residues; d marks the D form. dPhe(4-Cl) = N[C@H](Cc1ccc(Cl)cc1)C(=O)O; d2Nal = N[C@H](Cc1ccc2ccccc2c1)C(=O)O; dCit = NC(=O)NCCC[C@@H](N)C(=O)O; d3Pal = N[C@H](Cc1cccnc1)C(=O)O
# How the values were obtained:
# [1] = tested on: membrane receptors of human breast cancer cells; experiment: Receptor binding, human breast cancer cell membranes (125I-[D-Trp6]LHRH as labelled ligand); conditions: 125I-[D-Trp]6 LHRH labelled ligand
# Protocol: Affinity of peptides to rat pituitary and human breast cancer cell membranes is determined by using labelled LHRH and [D-Trp^6 ]LHRH. The assay is carried out similarly to that described by T. Kadar et al., Proc. Natl. Acad. Sci. USA, 85, 890-894 (1988) and M. Fekete et al., Endocrinology, 124, 946-955 (1989).
# [2] = tested on: perfused rat pituitary cell system (LH response to LH-RH); experiment: LH-RH inhibiting activity in superfused rat pituitary cell system; assay type: cell-based
# Protocol: Immediately after that, a mixture containing the same concentration of peptide and 3 nM LHRH is administered for 3 min. This was followed by four consecutive infusions of 3 nM LHRH for 3 min (1 ml perfusate) at 30 min intervals (30, 60, 90, 120 min). LH content of the 1 ml fractions collected is determined by radioimmunoassay (RIA).
# LH and FSH levels = experiment: In vivo effect on LH and FSH levels in castrated male rats; design: species or system rat; conditions: s.c.
# Protocol: (d) In vivo effect on LH and FSH levels was measured as described by L. Bokser et al. (Proc. Natl. Acad. Sci. US, accepted for publication.) Castrated male rats weighing 350-410 grams anaesthetized with urethane were injected subcutaneously with Peptide 7 and 8 in doses of 1.25 μg and 5.0 μg. Blood samples were taken from the jugular vein before injection and 1, 2, 3, 4, 6, 24 and 48 hours after the administration of peptides. Control animals were injected only with saline. LH and FSH levels were determined by specific RIAs.
# [3] = tested on: Dunning R3327 prostate cancer; experiment: In vivo antitumor effect, Dunning R3327 prostate cancer in rats; design: species or system rat; conditions: for Size of tumor, treated group: 25 μg/day, ± SD
# Protocol: Inhibition of growth of cancerous tumors in rats with compounds of Formula I was tested as described by Szende et al. (J. Natl. Cancer Inst., 82, 513-517, 1990; Szende et al., Cancer Research), 50, 3716-3721, 1990) by A. V. Schally and T. Redding (Proc. Natl. Acad. Sci. US, 84, 7279-7282, 1987), and by E. Korkut et al. (Proc. Natl. Acad. Sci. US, accepted for publication). Peptide 8 was dissolved in 45% aqueous propylene-glycol and was administered at a dose of 25 μg/day from an ALZET minipump to male rats bearing the androgen-dependent well-differentiated R3327 Dunning rat prostate adenocarcinoma. Tumors were measured weekly with microcalipers and tumor volumes were calculated. Duration of the treatment was 8 weeks, changing the minipumps at the end of the 4th week.
# LHRH = conditions: prior art; cited from earlier work
# [4] = cited from earlier work
# [5] = rats bearing Dunning R3327H prostate cancer
substance,measurement,setting,value
Ac-D-Nal(2)-D-Phe(4Cl)-D-Pal(3)-Ser-Tyr-D-Lys[A2 pr(Ac)2 ]-Leu-Arg-Pro-D-Ala-NH2 [Peptide 8],Affinity Constant Ka 2,[1],6.16 µM⁻¹
same,Affinity Constant Ka 1,[1]; NB = no binding,1.57 nM⁻¹
same,% inhibition of LH response,"[2]; antagonist to LH-RH ratio 1:1, 0 min",64%
same,% inhibition of LH response,"[2]; antagonist to LH-RH ratio 1:1, 30 min",39%
same,% inhibition of LH response,"[2]; antagonist to LH-RH ratio 1:1, 60 min",27%
same,% inhibition of LH response,"[2]; antagonist to LH-RH ratio 1:1, 90 min",22%
same,% inhibition of LH response,"[2]; antagonist to LH-RH ratio 3:1, 0 min",99%
same,% inhibition of LH response,"[2]; antagonist to LH-RH ratio 3:1, 30 min",66%
same,% inhibition of LH response,"[2]; antagonist to LH-RH ratio 3:1, 60 min",47%
same,% inhibition of LH response,"[2]; antagonist to LH-RH ratio 3:1, 90 min",37%
same,activity on LH levels forty-eight hours after injection,"LH and FSH levels; dose of 1.25 μg, 48 hours, p<0.05",active
same,inhibition of LH levels forty-eight hours after injection,"LH and FSH levels; dose of 5 μg, 48 hours, p<0.05",significant inhibition
same,duration of significant decrease in the LH levels,LH and FSH levels; p<0.01,more than 24 hours
same,"Size of tumor, treated group",[3]; week 0,4001 ± 1617 mm^3
same,"Size of tumor, treated group",[3]; week 1,5459 ± 1863 mm^3
same,"Size of tumor, treated group",[3]; week 2,5892 ± 1938 mm^3
same,"Size of tumor, treated group",[3]; week 3,6357 ± 2327 mm^3
same,"Size of tumor, treated group","[3]; week 4, p<0.05",6237 ± 2974 mm^3
same,"Size of tumor, treated group","[3]; week 5, p<0.05",7447 ± 3481 mm^3
same,"Size of tumor, treated group","[3]; week 6, p<0.05",8038 ± 4374 mm^3
same,"Size of tumor, treated group","[3]; week 7, p<0.01",8129 ± 3525 mm^3
same,Tumor doubling time,"[3]; Dunning R3327H prostate cancer, rats, control group 12 days",42 days
same,body weight during the treatment,[3]; [5],did not change
same,"weight of testis, seminal vesicles and ventral prostate",[3]; [5],greatly reduced
"[Ac-D-Nal(2)^1,D-Phe(4Cl)^2,D-Trp^3,D-hArg(Et)2^6,D-Ala^10 ] [Detirelix]",LHRH antagonist / ovulation inhibition potency,LHRH,powerful antagonist
same,side effects,[4]; in vivo,hypotensive and bradycardic side effect
Ac-[d2Nal][dPhe(4-Cl)][d3Pal]SY[dCit]LRP[dA]-NH2,LHRH antagonist / ovulation inhibition potency,LHRH,high inhibitory effect
same,side effects,[4]; prior art,no edematogenic and anaphylactoid side effects
